The values below come from PMC6244214, “Pd-Catalyzed microwave-assisted synthesis of phosphonated 13α-estrones as potential OATP2B1, 17β-HSD1 and/or STS inhibitors” (Beilstein Journal of Organic Chemistry, 2018).

Read-outs that look alike come from different tables or passages of the source.

In data set [1] the target is T1, human placental steroid sulfatase (STS) (Homo sapiens, UniProt P08842).
T1 construct: from tissue; host or cells: human term placenta, microsomes
T1 sequence (P08842 22-583): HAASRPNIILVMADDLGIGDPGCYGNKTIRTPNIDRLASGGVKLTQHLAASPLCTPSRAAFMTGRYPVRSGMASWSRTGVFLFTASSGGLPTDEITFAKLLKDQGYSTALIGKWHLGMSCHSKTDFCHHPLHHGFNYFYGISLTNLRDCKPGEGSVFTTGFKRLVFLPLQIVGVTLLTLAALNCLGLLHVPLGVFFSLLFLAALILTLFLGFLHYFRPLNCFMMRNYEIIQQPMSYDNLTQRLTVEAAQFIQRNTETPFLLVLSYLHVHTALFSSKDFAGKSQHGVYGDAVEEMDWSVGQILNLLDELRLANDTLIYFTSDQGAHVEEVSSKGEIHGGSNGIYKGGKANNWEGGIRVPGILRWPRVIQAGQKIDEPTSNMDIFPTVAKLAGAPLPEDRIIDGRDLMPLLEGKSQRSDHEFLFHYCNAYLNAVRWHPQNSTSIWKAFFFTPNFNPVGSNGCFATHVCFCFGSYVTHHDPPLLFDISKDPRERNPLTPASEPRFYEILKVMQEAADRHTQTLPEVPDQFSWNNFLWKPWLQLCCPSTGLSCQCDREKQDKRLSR
The data set can be described thus: STS in vitro radiosubstrate incubation (estrone-3-sulfate to estrone conversion). The following applies: relative conversion vs non-inhibited control (100%); test compound 10 μM; substrate E1S 1.0 μM; placental microsomes; n = 3; read-out: STS rel. conv. ± SD. In kind it is biochemical. As to the method: (§1) The ability of the synthesized compounds 8–13 to inhibit activity of steroid sulfatase (STS) and 17β-hydroxysteroid dehydrogenase type 1 (17β-HSD1) was examined. In vitro radiosubstrate incubations were performed with adapted literature methodsS2–4 and human placenta served as source of the enzymes. Radiolabelled steroids were obtained from American Radiolabeled Chemicals (St. Louis, MO, USA). Other chemicals and solvents of analytical grade purity were purchased from Sigma (St. Louis, MO, USA), from Fluka (Buchs, Switzerland) or from Merck (Darmstadt, Germany).
(§2) 3.2. Preparation of enzyme sources
(§3) Human term placentae were collected immediately after delivery and stored frozen at −80 °C.
(§4) Tissue specimens were homogenized with an Ultra-Turrax in 0.1 M HEPES buffer solution […]
(§5) (pH 7.3) containing 1 mM EDTA and 1 mM dithiotreitol, and cytosol and microsomas were obtained with fractionated centrifugation. Application of the human tissue was approved by the institutional Human Investigation Review Board.
(§6) 3.3. Incubation procedures
(§7) Enzymatic incubations were carried out in the HEPES buffer medium at a final volume of 200
(§8) µl. The substrate was added to the incubate in 20 μl of a 25 % v/v propylene glycol in HEPES buffer solution, whereas test compounds were applied in 10 μl of dimethyl sulfoxide solution.
Incubations were performed at 37 °C and terminated by cooling and the addition of organic solvents of the subsequent extraction procedure. Control samples with no inhibitor and blank samples were incubated simultaneously. The radioactivity of the products formed was measured by means of liquid scintillation counting (LSC) and taken as indicator of the […]
STS assays were performed using microsoma suspension and estrone-3-sulfate (E1S) substrate with [6,7-3H]estrone-3-sulfate tracer with incubations lasting for 20 min. Reactions were terminated by the addition of equal volume of methanol, and the product estrone (E1) was extracted with toluene.S4 […]
(§9) In the general procedure, incubations were performed as described. Concentrations of the substrates were 1.0 μM, and the test compounds were applied at 10 μM final concentration in the incubate. Relative conversions compared to non-inhibited controls (100%) were determined. The assays were performed in triplicate, and the mean value and the standard deviation (SD) were calculated.
(§10) In these cases, conversions were measured at 10–15 different concentrations in the appropriate interval between 0.001–50 μM. IC50 results were calculated by using unweighted iterative least squares logistic curve fitting by means of the “absolute IC50 calculation“ function of the GraphPad Prism 4.0 software (GraphPad Software, Inc., San Diego, CA, USA).

Data set [2] addresses T2, 17β-hydroxysteroid dehydrogenase type 1 (17β-HSD1) (Homo sapiens, UniProt P14061).
T2 construct: from tissue; host or cells: human term placenta, cytosol
T2 sequence (P14061 1-328): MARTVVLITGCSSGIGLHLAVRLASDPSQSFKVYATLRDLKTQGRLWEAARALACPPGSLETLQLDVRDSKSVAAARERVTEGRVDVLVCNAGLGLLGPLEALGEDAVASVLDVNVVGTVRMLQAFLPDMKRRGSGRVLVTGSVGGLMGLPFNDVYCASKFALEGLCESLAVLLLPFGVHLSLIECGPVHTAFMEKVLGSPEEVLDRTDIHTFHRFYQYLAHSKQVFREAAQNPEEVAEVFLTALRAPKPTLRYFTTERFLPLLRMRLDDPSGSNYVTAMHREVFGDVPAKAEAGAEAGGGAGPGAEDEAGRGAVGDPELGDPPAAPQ
The data set can be described thus: 17β-HSD1 in vitro radiosubstrate incubation (estrone to 17β-estradiol conversion). Format: biochemical. Conditions: for remaining activity at 10 µM: read-out: 17β-HSD1 rel. conv. ± SD. As for the experimental part: as §1, §2, §3, §4, §5, §6, §7, §8
Incubations were performed at 37 °C and terminated by cooling and the addition of organic solvents of the subsequent extraction procedure. Control samples with no inhibitor and blank samples were incubated simultaneously. […]
In the 17β-HSD1 assays the cytosol was incubated using estrone (E1) substrate with [6,7-3H]estrone tracer and 0.1 mM NADPH cofactor excess. The incubation time was 2.5 min. The product 17β-estradiol (E2) was extracted with ethyl acetate and isolated by a TLC method.S5 […]
as §9, §10

In another data set the target is T3, human OATP2B1 (Homo sapiens, UniProt O94956).
T3 construct: expressed in transfected cells; host or cells: A431 cells
T3 sequence (O94956 1-709): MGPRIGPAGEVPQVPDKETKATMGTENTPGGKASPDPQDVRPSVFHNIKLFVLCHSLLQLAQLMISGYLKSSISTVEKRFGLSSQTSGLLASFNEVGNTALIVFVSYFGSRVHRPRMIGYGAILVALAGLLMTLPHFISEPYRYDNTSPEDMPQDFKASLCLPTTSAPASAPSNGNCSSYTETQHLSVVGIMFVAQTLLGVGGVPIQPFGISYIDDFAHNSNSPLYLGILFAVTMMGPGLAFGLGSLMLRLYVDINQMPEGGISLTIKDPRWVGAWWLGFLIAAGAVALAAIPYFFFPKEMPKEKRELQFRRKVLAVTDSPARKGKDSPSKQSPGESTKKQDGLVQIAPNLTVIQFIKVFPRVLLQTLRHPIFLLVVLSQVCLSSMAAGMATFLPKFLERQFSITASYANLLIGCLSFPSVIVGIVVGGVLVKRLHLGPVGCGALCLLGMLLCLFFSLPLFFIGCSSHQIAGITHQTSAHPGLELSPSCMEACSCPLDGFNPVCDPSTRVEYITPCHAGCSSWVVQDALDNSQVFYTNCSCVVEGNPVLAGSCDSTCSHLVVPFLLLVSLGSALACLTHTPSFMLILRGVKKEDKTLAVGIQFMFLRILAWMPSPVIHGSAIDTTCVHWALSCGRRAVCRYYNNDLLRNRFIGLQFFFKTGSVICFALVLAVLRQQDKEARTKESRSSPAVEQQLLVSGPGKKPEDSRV
The data set can be described thus: Cascade Blue uptake assay of OATP2B1 transport activity. In kind it is cell-based. As to the method:
CascadeBlue assay.S1 A431 cells ([…] in 200 μl) overexpressing human OATP2B1 or transfected with the vector control were seeded on 96 well plates 16 hours prior to the transport measurement. Transport reaction was performed as described in.S1 Briefly, after washing the cells 3-times with 200 µl 1 × phosphate buffered saline (PBS) the cells were preincubated with test compounds in final concentrations from 0.03 to 50 µM or dimethyl sulfoxide (used as a solvent for the test compounds and serving as non-treated control) for 5 minutes at 37 °C. The reaction was started with the addition of 50 µl Cascade Blue (resulting in final concentration of 10 µM) and the cells were further incubated at 37 °C for 30 minutes.
The reaction was stopped by the addition of 200 µl ice-cold 1 × PBS, and after 3 washing steps the fluorescence remaining in the cells was determined by Enspire fluorescent plate reader (Perkin Elmer) at 400 nm excitation and 419 nm emission wavelengths. Transport activity was determined by subtracting fluorescence in mock transfected cells. Kinetics of inhibition was determined by Hill fit using the Origin 8.6 software. […]

The mark [3] stands for this setting: A431 cells overexpressing human OATP2B1, Cascade Blue 10 μM, 30 min, 37 °C, read-out: OATP2B1 IC50 ± SD.

As to `CCOP(=O)(OCC)c1cc2c(cc1OC)CC[C@@H]1[C@@H]2CC[C@@]2(C)C(=O)CC[C@@H]12` [8a, diethyl (3-methoxy-13α-estra-1,3,5(10)-trien-17-on-2-yl)phosphonate], the remaining activity at 10 µM in data set [1] stood at 84 ± 4%; in data set [2], 60 ± 3%. Further, 1800 ± 300 nM corresponded to half-maximal inhibition against human OATP2B1 (IC50).

On to `COc1cc2c(cc1P(=O)(c1ccccc1)c1ccccc1)[C@H]1CC[C@@]3(C)C(=O)CC[C@H]3[C@@H]1CC2` [8b, (3-methoxy-13α-estra-1,3,5(10)-trien-17-on-2-yl)diphenylphosphine oxide], for which the remaining activity at 10 µM in data set [1] was determined as 80 ± 8%. The IC50 stood at 4100 ± 1100 nM in data set [2] and 1200 ± 100 nM at human OATP2B1.

For `CCOP(=O)(OCC)c1cc2c(cc1O)CC[C@@H]1[C@@H]2CC[C@@]2(C)C(=O)CC[C@@H]12` [9a, diethyl (3-hydroxy-13α-estra-1,3,5(10)-trien-17-on-2-yl)phosphonate], the remaining activity at 10 µM in data set [1] came to 97 ± 5%. Further, the IC50 was 1500 ± 300 nM in data set [2] and 2100 ± 200 nM against human OATP2B1.

As to `C[C@@]12CC[C@@H]3c4cc(P(=O)(c5ccccc5)c5ccccc5)c(O)cc4CC[C@H]3[C@@H]1CCC2=O` [9b, (3-hydroxy-13α-estra-1,3,5(10)-trien-17-on-2-yl)diphenylphosphine oxide], the remaining activity at 10 µM in data set [1] was found to be 77 ± 10%. The IC50 in data set [2] (human placental cytosol, estrone 1.0 μM, 0.1 mM NADPH, read-out: 17β-HSD1 IC50 ± SD) was found to be 180 ± 60 nM; against human OATP2B1, 2600 ± 200 nM.

For `CCOP(=O)(OCC)c1cc2c(cc1OCc1ccccc1)CC[C@@H]1[C@@H]2CC[C@@]2(C)C(=O)CC[C@@H]12` [10a, diethyl (3-benzyloxy-13α-estra-1,3,5(10)-trien-17-on-2-yl)phosphonate], the remaining activity at 10 µM in data set [1] came out at 85 ± 7%; in data set [2], 64 ± 3%. The compound also showed an IC50 at human OATP2B1 of 200 ± 20 nM.

As to `C[C@@]12CC[C@@H]3c4cc(P(=O)(c5ccccc5)c5ccccc5)c(OCc5ccccc5)cc4CC[C@H]3[C@@H]1CCC2=O` [10b, (3-benzyloxy-13α-estra-1,3,5(10)-trien-17-on-2-yl)diphenylphosphine oxide], the remaining activity at 10 µM in data set [1] turned out to be 85 ± 5%; in data set [2], 73 ± 3%. The compound further showed an IC50 at human OATP2B1 of 1000 ± 100 nM.

On to `CCOP(=O)(OCC)c1c(OC)ccc2c1CC[C@@H]1[C@@H]2CC[C@@]2(C)C(=O)CC[C@@H]12` [11a, diethyl (3-methoxy-13α-estra-1,3,5(10)-trien-17-on-4-yl)phosphonate], for which the remaining activity at 10 µM was 93 ± 7% in data set [1] and 100 ± 5% in data set [2]. Moreover, on human OATP2B1, 2800 ± 1500 nM corresponded to half-maximal inhibition (IC50).

As for `COc1ccc2c(c1P(=O)(c1ccccc1)c1ccccc1)CC[C@@H]1[C@@H]2CC[C@@]2(C)C(=O)CC[C@@H]12` [11b, (3-methoxy-13α-estra-1,3,5(10)-trien-17-on-4-yl)diphenylphosphine oxide], the remaining activity at 10 µM is 80 ± 5% in data set [1] and 106 ± 8% in data set [2]. The same compound came in with an IC50 on human OATP2B1 of 2500 ± 400 nM.

Take `CCOP(=O)(OCC)c1c(O)ccc2c1CC[C@@H]1[C@@H]2CC[C@@]2(C)C(=O)CC[C@@H]12` [12a, diethyl (3-hydroxy-13α-estra-1,3,5(10)-trien-17-on-4-yl)phosphonate]: the values for the remaining activity at 10 µM in data set [1] and in data set [2] were 93 ± 6% and 84 ± 4%, respectively. The IC50 at human OATP2B1 was 1400 ± 100 nM.

As to `C[C@@]12CC[C@@H]3c4ccc(O)c(P(=O)(c5ccccc5)c5ccccc5)c4CC[C@H]3[C@@H]1CCC2=O` [12b, (3-hydroxy-13α-estra-1,3,5(10)-trien-17-on-4-yl)diphenylphosphine oxide], the remaining activity at 10 µM was found to be 93 ± 4% in data set [1] and 100 ± 5% in data set [2]. For the same compound, at human OATP2B1, the IC50 is greater than 50000 nM.

As to `CCOP(=O)(OCC)c1c(OCc2ccccc2)ccc2c1CC[C@@H]1[C@@H]2CC[C@@]2(C)C(=O)CC[C@@H]12` [13a, diethyl (3-benzyloxy-13α-estra-1,3,5(10)-trien-17-on-4-yl)phosphonate], the remaining activity at 10 µM in data set [1] is 87 ± 5%; in data set [2], 92 ± 3%. In addition, inhibition at human OATP2B1 was half-maximal at 300 ± 20 nM (IC50).

As to `C[C@@]12CC[C@@H]3c4ccc(OCc5ccccc5)c(P(=O)(c5ccccc5)c5ccccc5)c4CC[C@H]3[C@@H]1CCC2=O` [13b, (3-benzyloxy-13α-estra-1,3,5(10)-trien-17-on-4-yl)diphenylphosphine oxide], the remaining activity at 10 µM amounted to 105 ± 7% in data set [1] and 75 ± 2% in data set [2]. Also, at human OATP2B1, half-maximal inhibition (IC50) was put at 300 ± 20 nM.

For the compound `C[C@@]12CC[C@@H]3c4ccc(OCc5ccccc5)cc4CC[C@H]3[C@@H]1CCC2=O` [13αE1OBn, reference compound], the IC50 on human OATP2B1 (setting [3]) is 1700 ± 900 nM.

With `COc1ccc2c(c1)CC[C@@H]1[C@@H]2CC[C@@]2(C)C(=O)CC[C@@H]12` [13αE1OMe, reference compound], the IC50 at human OATP2B1 (setting [3]) was found to be 3400 ± 300 nM.
